Assay results published in patent publication US6706686B2, “Inhibition of histone deacetylase as a treatment for cardiac hypertrophy” (The Regents of the University of Colorado, priority 2001, dated 2004).
“Also recorded” adds a separate entry of the source.

Experiments:
ras transformed cells = conditions: Taunton et al., 1996; cited from earlier work
[1] = tested on: ANF, αSK-actin, αMyHC, βMyHC RNA in cardiomyocytes; assay: RNA dot blot of fetal gene program; type: cell-based, rat
Method: FIGS. 5A-B. Treatment of cardiomyocytes with HDAC inhibitors blocks the fetal gene program associated with cardiomyocyte hypertrophy. […] The graphs represent three or more independent experiments.
Dot Blot analysis. Total RNA was isolated from cardiomyocytes that were either untreated, treated with phenylephrine, treated with TSA, or co-treated with phenylephrine and TSA. One microgram of RNA was blotted onto Nitrocellulose (Bio-Rad, Hercules, Calif.) and hybridized at 50° C. for 14 hrs with end-labeled oligos. (ANF, 5′-[…]-3, SEQ ID NO 1; αSK actin5′-[…]-3′, SEQ ID NO2; αMyHC,5′[…]-3′, SEQ ID NO 3; βMyHC5′-[…]-3′, SEQ ID NO 4; GAPDH5′-[…]-3′, SEQ ID NO 5). The blots were washed twice in 2×SSC/0.5% SDS solution and exposed to film (Kodak, Rochester, N.Y.) or phosphoimager (Amersham Bioscience, Sunnyvale, Calif.). The intensity of the hybridization of the probes was measured using ImageQuant® (Amersham Bioscience, Sunnyvale, Calif.).

cardiomyocytes [2] = assay: Protein synthesis (tritiated leucine, S6 ribosomal protein); type: cell-based, rat
Method: FIG. 6. The effects of TSA treatment on the reorganization of the sarcomeres and protein synthesis. […] The graphs on the right show the content of S6 ribosome protein in cardiomyocytes after 24 hours co-treatment with PE and increasing concentrations of TSA or with serum and increasing concentrations of TSA.
Protein synthesis. Cardiomyocytes were incubated with (1.0 μCi/ml; 172 Ci/mmol sp. activity) tritiated-leucine (ICN Biochemicals, Inc., Irvine, Calif.) in treated RPMI media (Invitrogen, Carlsbad, Calif.). After 6 hrs incubation, the cells were washed twice with 1× PBS, then incubated in 10% TCA on ice for 30 min. Afterwards, the cells were washed twice with 5% TCA, once with water, and then lysed in […]. Lysates were measured in one-sixth volume of scintillation fluid by a scintillation counter (Beckman, Fullerton, Calif.).
S6 Ribosomal protocol. After blocking, cells were incubated in 1% BSA/1× PBS containing 50 μg/ml anti-S6 protein (Cell Signaling, […]) for 1 hr. After washing, the cells were incubated with IgG-HRP (Jackson Labs, […]) at a 1:400 dilution. The cells were then washed twice in 1% BSA/1× PBS, in 1× PBS, then blotted dry. Luminol (Pierce, Rockford, Ill.) was added and the chemiluminescence was detected in a Fusion reader (Perkin-Elmer/Packard).

[3] = tested on: CMV-Lac Z reporter in neonatal rat cardiomyocytes; assay: CMV-Lac Z reporter (specificity control); type: cell-based; conditions: inhibitor alone or together with phenylephrine
Method: FIGS. 3A-D. HDAC inhibitors block the activation of ANF reporter by phenylphrine without cytotoxicity. Neonatal rat cardiomyocytes were co-transfected with a total of 1 μg of the mouse 3 kb ANF promoter fragment and CMV-Lac Z plasmids. (FIG. 3A) The ANF promoter is minimally active in unstimulated cardiomyocytes. […] (FIG. 3B) Lac Z expression by the constitutive promoter CMV. Treatment with HDAC inhibitors augmented CMV activity with and without phenylephrine co-treatment. (FIGS. 3C and 3D) The graphs show the measurements of adenylate kinase activity remains constant in the medium after […] of culturing cardiomyocytes in the absence or presence of hypertrophic stimulants FBS, PE or ET-1.
Transcription assay. Twenty-four hours after plating, cells were transfected with total of 1 μg/ml for 5 hrs using Lipofectamine Plus reagent (Invitrogen, Carlsbad, Calif.). Transfected cells were incubated 24 hrs then treated for an additional 24 hrs. Cells were lysed and their lysates assayed with the Luciferase Assay System (Promega, Madison, Wis.) for luminescence using Lucysoft 2 luminometer (Rosys Anthos, New Castle, Del.).

cardiomyocytes [4] = assay: Immunostaining for ANF protein and α-actinin (sarcomere); type: cell-based, rat
Method: Immunostaining. Glass coverslips were coated with laminin (Invitrogen, Carlsbad, Calif.) by solublizing laminin in 1× PBS (40 μg/ml), by dipping the coverslips in the solution and by allowing them to air-dry. Cells were treated for 24 hrs, washed, fixed 10 min. with 3.7% formaldehyde, washed with 1× PBS and permeabolized with 1× PBS containing 3% BSA and 0.1% NP-40 (Sigma, St. Louis, Mo.). Primary Antibodies were in 1× PBS containing 3% BSA and 0.1% NP-40 for 30 min, then washed three times in 1× PBS. The secondary FITC or TRITC antibodies (Vector Laboratories, Inc., Burlingame, Calif.) were incubated (1:200) in same buffer solution as the primary antibodies, then washed in 1× PBS, covered and subsequently visualized. Images were captured using a digital camera (Hamamatsu Photonics, Hamamatsu City, Japan).

mouse model = conditions: Takahashi et al, 1996; cited from earlier work
[5] = tested on: cultured cardiac myocytes; assay: Myocyte growth by 14C-phenylalanine radiolabeled protein content; type: cell-based, rat
Method: Cell culture. Ventricular myocytes from one-day-old rats were plated at low density in MEM with 5% calf serum, and studied in serum-free MEM. Cultures were treated with PE (#P6126, Sigma-Aldrich Corp., St. Louis, Mo.), IL-1 (#501-RL, R&D Systems, Minneapolis, Minn.), TSA (#GR-309, BIOMOL Research Laboratories, Inc., Plymouth Meeting, Pa.) or their vehicles (ascorbic acid for PE; bovine serum albumin for IL-1; dimethyl sulfoxide for TSA).
Quantification of myocyte hypertrophy and myocyte-specific mRNA expression. Growth of cultured myocytes was quantified by content of radiolabeled protein after continuous incubation with ^14C-phenylalanine. For evaluation of the myocyte gene program, total RNA was extracted from cells with TRIZol (GIBCO, Carlsbad, Calif.) and used in RNase protection assay with probes for SERCA, α-/β-MyHC, ANP, BNP, and cardiac α-actin. All samples also included glyceraldehyde phosphate dehydrogenase (GAPDH) as an internal control for RNA loading.

CC(/C=C/C(=O)NO)=C\[C@@H](C)C(=O)c1ccc(N(C)C)cc1 [TSA, Trichostatin A]
acetylation (ras transformed cells): induce hyperacetylation | morphology of ras transformed cells (ras transformed cells): cause reversion of ras transformed cells to normal morphology | αMyHC expression ([1]; TSA treatment): induced the expression of αMyHC; also recorded: stimulated the expression of αMyHC | phenylephrine-induced endogenous ANF RNA expression ([1]; phenylephrine 100 μM, TSA 85 nM, sodium butyrate 5 mM, HC-toxin 5 ng/ml): prevented the phenylephrine-induced ANF response; also recorded: blocks the accumulation of ANF message | phenylephrine-induced αSK-actin expression ([1]; phenylephrine co-treatment): suppression of other genes activated by the hypertrophic stimulant; also recorded: lack of gene activation | phenylephrine-induced βMyHC expression ([1]; phenylephrine co-treatment): down-regulating the fetal myosin chain isoform; also recorded: prevented the activation of βMyHC | phenylephrine-stimulated protein synthesis, 6 hours (cardiomyocytes [2]; 6 hours co-culture with phenylephrine): had little effect on the stimulation of protein synthesis; also recorded: does not alter this increase | protein synthesis induced by PE or serum, 24 hrs (cardiomyocytes [2]; 24 hrs co-treatment): antagonized the protein synthesis normally induced by PE or serum in a dose-dependent manner | transcriptional activity of CMV-Lac Z reporter [3]: increased the transcriptional activity of the CMV-Lac Z reporter | ANF protein accumulation, inhibitor alone (cardiomyocytes [4]; 24 hrs): lacked accumulation of ANF protein | cell size (cardiomyocytes [4]; TSA alone): did not change size | organization of the sarcomere (α-actinin), inhibitor alone (cardiomyocytes [4]; TSA alone): lacked organization of the sarcomere | organization of the sarcomere with growth stimulants (cardiomyocytes [4]; phenylephrine, serum or ET-1): lacked fully organized sarcomeres | ANF protein accumulation induced by phenylephrine or serum (cardiomyocytes [4]; with phenylephrine or serum): dramatically reduced ANF protein accumulation | immunosuppression (mouse model): induces immunsuppression | myocyte growth ([5]; inhibitor by itself): had no effect on myocyte growth | hypertrophic responses to PE and IL-1 (growth) ([5]; with PE or IL-1): enhanced the individual hypertrophic responses to both PE and IL-1
